# Reference: patent publication US20030176475A1, “Therapeutically useful new salts of cck inhibitors, process for the preparation thereof and pharmaceutical preparations containing them” (priority 2000, published 2003)
# How the values were obtained:
# [1] = Hygroscopicity and chemical stability of the salts; type: physicochemical
# From the text: The mono- and di-sodium salts, as well as the mono- and di-potassium salts and their hydrates are highly hygroscopic and chemically not stable compounds namely the compound of the formula (II) decomposes at the amide bond giving rise to decomposition products of formulae (IV) (FIG. 6) and (V) (FIG. 7).
# [2] = target: T1, cholecystokinin A (CCK-A) (Rattus norvegicus, UniProt P30551); conditions: comparison in words; cited from earlier work
# T1 construct: from tissue; host or cells: living rat (in vivo, oral dosing; gastric emptying)
# T1 sequence (P30551 1-444): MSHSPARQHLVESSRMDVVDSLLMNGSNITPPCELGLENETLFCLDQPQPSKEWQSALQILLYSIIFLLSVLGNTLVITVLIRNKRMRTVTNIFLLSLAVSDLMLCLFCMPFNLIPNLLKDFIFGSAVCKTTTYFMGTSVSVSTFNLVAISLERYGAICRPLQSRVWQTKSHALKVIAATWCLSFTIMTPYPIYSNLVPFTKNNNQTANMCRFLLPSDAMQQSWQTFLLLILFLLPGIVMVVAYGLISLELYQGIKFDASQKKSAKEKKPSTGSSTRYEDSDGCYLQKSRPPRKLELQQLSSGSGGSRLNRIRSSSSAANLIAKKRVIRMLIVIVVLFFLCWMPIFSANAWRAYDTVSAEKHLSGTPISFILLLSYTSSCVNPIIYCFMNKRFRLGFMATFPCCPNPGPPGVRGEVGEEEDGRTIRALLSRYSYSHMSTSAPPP
SMILES,melting point,hygroscopicity [1],chemical stability ([1]; decomposition at the amide bond to products of formulae (IV) and (V)),ED50 of prior salts compared with the 34 μg/kg p.o. of the compound of the invention [2]
CCNCC.COc1cc(-c2nc(NC(=O)c3cc4cc(C)cc(C)c4n3CC(=O)O)sc2CCC2CCCCC2)c(OC)cc1Cl,209.4 to 210.7 °C,–,–,–
COc1cc(-c2nc(NC(=O)c3cc4cc(C)cc(C)c4n3CC(=O)O)sc2CCC2CCCCC2)c(OC)cc1Cl.NCCO.O (hydrate or solvate),166 to 167 °C,–,–,–
"COc1cc(-c2nc(NC(=O)c3cc4cc(C)cc(C)c4n3CC(=O)O)sc2CCC2CCCCC2)c(OC)cc1Cl.NCCO [ethanolamine salt, 2-[[[4-(4-chloro-2,5-dimethoxyphenyl)-5-(2-cyclohexylethyl)-2-thiazolyl]amino]carbonyl]-5,7-dimethyl-1H-indol-1-acetic Acid Ethanolamine Salt]",208 to 210 °C,non-hygroscopic,chemically stable,–
Nc1cc(Cl)nc(C(=O)[O-])c1Cl.[K+] [potassium salt],–,–,–,in the same order
